Results as given in US7816351B2, “5,6-dimethylthieno[2,3-di] pyrimidine derivatives, the preparation method thereof and the pharmaceutical composition comprising the same for anti-virus” (Equispharm Co., Ltd, priority 2005, dated 2010).

Test system: hepatitis C virus replicon NK-R2AN in Huh-7 cells
Test: microbe, parasite or virus in culture
Format: cell-based
Details: Huh-7 cells containing replicon NK-R2AN, 48 hours, renilla luciferase activity relative to protein amount, read-out: HCV replicon inhibitory activity (EC50)

| Structure (SMILES) | EC50 [µM] |
| --- | --- |
| Cc1sc2nc(N3CCN(C(=O)c4ccccn4)CC3)nc(Nc3ccc(N4CCOCC4)nc3)c2c1C [Example 4, 4-[5,6-dimethyl-4-(6-morpholinopyridin-3-ylamino)-thieno[2,3-d]pyrimidin-2-yl]-piperazin-1-yl-pyridin-2-yl-methanone] | 0.71 |
| Cc1sc2nc(N3CCN(C(=O)c4ccncc4)CC3)nc(Nc3ccc(N4CCOCC4)cc3)c2c1C [Example 3, 4-[5,6-dimethyl-4-(4-morpholin-4-yl-phenylamino)-thieno[2,3-d]pyrimidin-2-yl]-piperazin-1-yl-pyridin-4-yl-methanone] | 0.48 |
| Cc1sc2nc(N3CCN(C(=O)c4cccnc4)CC3)nc(Nc3ccc(N4CCOCC4)nc3)c2c1C [Example 5, 4-[5,6-dimethyl-4-(6-morpholinopyridin-3-ylamino)-thieno[2,3-d]pyrimidin-2-yl]-piperazin-1-yl-pyridin-3-yl-methanone] | 0.51 |
| Cc1sc2nc(N3CCN(C(=O)c4cccnc4)CC3)nc(Nc3ccc(N4CCOCC4)cc3)c2c1C [Example 2, 4-[5,6-dimethyl-4-(4-morpholin-4-yl-phenylamino)-thieno[2,3-d]pyrimidin-2-yl]-piperazin-1-yl-pyridin-3-yl-methanone] | 0.45 |
| Cc1sc2nc(N3CCN(C(=O)c4ccccn4)CC3)nc(Nc3ccc(N4CCOCC4)cc3)c2c1C [Example 1, 4-[5,6-dimethyl-4-(4-morpholin-4-yl-phenylamino)-thieno[2,3-d]pyrimidin-2-yl]-piperazin-1-yl-pyridin-2-yl-methanone] | 0.68 |
